Earlier results as cited in patent US7459223B2, “Electrochemical methods for generation of a biological proton motive force” (Board of Trustees of Michigan State University, priority 1998, dated 2008).
Where two headings read alike, the source gives them in different places.

Conditions: cited from earlier work

| Molecule | E0′ (redox potential) (Table 1, redox mediators) [V] | E0′ (redox potential) [volt] |
| --- | --- | --- |
| Menaquinone | −0.074 | −0.073 |
| NC(=O)c1ccc[n+]([C@@H]2O[C@H](COP(=O)(O)OP(=O)(O)OC[C@H]3O[C@@H](n4cnc5c(N)ncnc54)[C@H](O)[C@@H]3O)[C@@H](O)[C@H]2O)c1 [NAD^+] | −0.32 | – |
